Results published in ChEMBL document CHEMBL1128265, “Three-dimensional quantitative structure-activity relationship (QSAR) of HIV integrase inhibitors: a comparative molecular field analysis (CoMFA) study” (J Med Chem, 1995).

What was measured:
[1] = target: T1, Human immunodeficiency virus type 1 integrase (Human immunodeficiency virus 1, UniProt Q7ZJM1)
[2] = target: T1, Human immunodeficiency virus type 1 integrase; remark: listed apart in the source

T1 sequence (Q7ZJM1 whole entry): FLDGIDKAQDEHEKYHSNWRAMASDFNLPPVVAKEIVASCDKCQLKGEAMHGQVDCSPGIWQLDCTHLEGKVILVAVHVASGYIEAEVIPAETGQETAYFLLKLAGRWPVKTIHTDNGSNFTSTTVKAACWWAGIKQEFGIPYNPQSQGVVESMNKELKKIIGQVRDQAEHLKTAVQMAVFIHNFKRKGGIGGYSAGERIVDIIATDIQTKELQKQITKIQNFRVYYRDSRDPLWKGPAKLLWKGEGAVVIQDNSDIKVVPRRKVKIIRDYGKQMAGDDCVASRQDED

IC50 [1] [µM]	IC50 [2] [µM]	SMILES
10.3	39.6	C[C@@H]1O[C@@H](O)[C@H](O)[C@H](O)[C@H]1Oc1c(-c2cc(O)c(O)c(O)c2)oc2cc(O)cc(O)c2c1=O
38.5	60	CC1OC(O)C(O)C(O)C1Oc1c(-c2ccc(O)c(O)c2)oc2cc(O)cc(O)c2c1=O (centres undefined)
0.1	0.8	O=c1c(O)c(-c2ccc(O)c(O)c2)oc2cc(O)c(O)c(O)c12 [QUERCETAGETIN]
64.7	97.8	O=c1c(O)c(-c2ccc(O)cc2)oc2cc(O)cc(O)c12 [KAEMPFEROL]
31.7	76.5	O=c1c(O)c(-c2ccc(O)cc2O)oc2cc(O)cc(O)c12 [MORIN]
22.5	69.7	O=c1c(O)c(-c2ccc(O)c(O)c2)oc2c(O[C@@H]3O[C@@H](O)[C@@H](O)[C@H](O)[C@H]3O)c(O)cc(O)c12
8.5	28.4	O=c1c(O)c(-c2ccc(O)c(O)c2)oc2cc(O)ccc12 [FISETIN]
25.1	66.3	O=c1c(OC2COC(O)C(O)C2O)c(-c2ccc(O)c(O)c2)oc2cc(O)cc(O)c12 (centres undefined)
28.7	61.6	COc1cc(O)c2c(=O)c(O)c(-c3ccc(O)c(O)c3)oc2c1 [RHAMNETIN]
39.1	94.3	COc1c(O)cc2oc(-c3ccc(O)c(O)c3)cc(=O)c2c1O [EUPAFOLIN]
1.6	5.9	O=c1c(O)c(-c2cc(O)c(O)c(O)c2)oc2cc(O)ccc12 [ROBINETIN]

SMILES	IC50 [1] [µM]	IC50 [2] [µM]
O=c1cc(-c2ccc(O)c(O)c2)oc2cc(O)cc(O)c12 [LUTEOLIN]	25	32.9
